IC50 data for eleven molecules are collected here from patent publication US11168073B2, “3,3-difluoroallylamines or salts thereof and pharmaceutical compositions comprising the same” (YUHAN CORPORATION, priority 2018, dated 2021).

Counter-ions that a name gives are not always drawn. Like-named read-outs stand apart in the source and are kept apart here.

What all share (assay type): biochemical
Assay [1] has as its target T1, recombinant human MAO-A (monoamine oxidase-A) (Homo sapiens, UniProt P21397).
T1 construct: purchased Sigma-Aldrich
T1 sequence (P21397 1-527): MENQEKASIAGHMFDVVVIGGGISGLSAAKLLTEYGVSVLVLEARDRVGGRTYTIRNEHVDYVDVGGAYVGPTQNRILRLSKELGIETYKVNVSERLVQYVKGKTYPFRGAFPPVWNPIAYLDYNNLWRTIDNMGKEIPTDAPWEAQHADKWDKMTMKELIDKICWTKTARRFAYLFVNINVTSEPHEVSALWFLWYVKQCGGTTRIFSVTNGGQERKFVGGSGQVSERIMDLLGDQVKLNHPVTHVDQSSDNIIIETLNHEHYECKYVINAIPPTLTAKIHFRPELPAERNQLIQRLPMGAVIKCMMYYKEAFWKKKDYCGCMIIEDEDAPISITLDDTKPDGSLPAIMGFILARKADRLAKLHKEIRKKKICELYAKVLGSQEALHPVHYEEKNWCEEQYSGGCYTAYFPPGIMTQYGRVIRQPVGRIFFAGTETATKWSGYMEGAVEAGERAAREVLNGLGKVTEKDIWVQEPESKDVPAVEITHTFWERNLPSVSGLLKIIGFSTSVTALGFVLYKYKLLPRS
The assay is described as follows: Activity evaluation on recombinant human MAO-A (Amplex Red/HRP-coupled assay, 0.5 mM tyramine substrate). The following applies: read-out: Inhibitory Activity (IC50, nM) MAO-A. The method in brief: (§1)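 Enzyme activity was measured as fluorescence rate (ex 544, em 590 nm) from resorufin formed by HRP-coupled H2O2 oxidation of 200 uM Amplex Red. Compounds were first incubated 30 min at 37 °C with enzyme at pH 7.4; substrates were 0.5 mM tyramine (MAO-A), 1 mM benzylamine (MAO-B) and 1 mM putrescine (DAO).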

A further assay deals with T2, recombinant human VAP-1 (Homo sapiens, UniProt Q16853).
T2 construct: purchased R&D systems
T2 sequence (Q16853 1-763): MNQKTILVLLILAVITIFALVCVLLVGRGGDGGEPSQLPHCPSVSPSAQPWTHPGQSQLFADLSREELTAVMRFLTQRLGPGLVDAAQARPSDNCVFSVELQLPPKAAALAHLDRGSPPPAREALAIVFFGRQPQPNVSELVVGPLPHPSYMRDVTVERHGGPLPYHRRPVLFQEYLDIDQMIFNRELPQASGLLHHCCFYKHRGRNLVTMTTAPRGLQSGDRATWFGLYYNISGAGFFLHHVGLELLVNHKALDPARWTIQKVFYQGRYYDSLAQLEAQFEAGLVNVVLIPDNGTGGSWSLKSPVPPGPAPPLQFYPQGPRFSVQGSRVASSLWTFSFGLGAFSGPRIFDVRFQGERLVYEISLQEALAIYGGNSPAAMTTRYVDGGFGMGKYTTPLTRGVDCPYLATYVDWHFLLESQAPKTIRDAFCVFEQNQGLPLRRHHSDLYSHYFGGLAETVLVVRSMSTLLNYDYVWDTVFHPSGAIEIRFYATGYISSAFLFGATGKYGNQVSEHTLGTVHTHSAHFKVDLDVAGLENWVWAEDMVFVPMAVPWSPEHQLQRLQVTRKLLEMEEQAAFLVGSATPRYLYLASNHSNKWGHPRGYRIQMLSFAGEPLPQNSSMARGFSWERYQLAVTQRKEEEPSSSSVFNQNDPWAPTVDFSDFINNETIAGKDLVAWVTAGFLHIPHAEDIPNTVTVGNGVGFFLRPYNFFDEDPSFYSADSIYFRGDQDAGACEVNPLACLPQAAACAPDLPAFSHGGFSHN
The assay is described as follows: Activity evaluation on recombinant human VAP-1 (Amplex Red/HRP-coupled hydrogen peroxide assay, benzylamine substrate). The note with it: read-out: Inhibitory Activity (IC50, nM) human VAP-1. The essentials:
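Recombinant human VAP-1 in 50 mM sodium phosphate pH 7.4 preincubated 30 min at 37 °C with compound (8-point 1:3 series, <1% DMSO), then 1 mM benzylamine, 200 uM Amplex Red, 1 U/mL HRP added. H2O2-derived resorufin fluorescence (ex 544/em 590) followed 1–2 h; IC50 from four-parameter fit of rate inhibition.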

Assay [2] concerns the target T3, recombinant human MAO-B (monoamine oxidase-B) (Homo sapiens, UniProt P27338).
T3 construct: purchased Sigma-Aldrich
T3 sequence (P27338 1-520): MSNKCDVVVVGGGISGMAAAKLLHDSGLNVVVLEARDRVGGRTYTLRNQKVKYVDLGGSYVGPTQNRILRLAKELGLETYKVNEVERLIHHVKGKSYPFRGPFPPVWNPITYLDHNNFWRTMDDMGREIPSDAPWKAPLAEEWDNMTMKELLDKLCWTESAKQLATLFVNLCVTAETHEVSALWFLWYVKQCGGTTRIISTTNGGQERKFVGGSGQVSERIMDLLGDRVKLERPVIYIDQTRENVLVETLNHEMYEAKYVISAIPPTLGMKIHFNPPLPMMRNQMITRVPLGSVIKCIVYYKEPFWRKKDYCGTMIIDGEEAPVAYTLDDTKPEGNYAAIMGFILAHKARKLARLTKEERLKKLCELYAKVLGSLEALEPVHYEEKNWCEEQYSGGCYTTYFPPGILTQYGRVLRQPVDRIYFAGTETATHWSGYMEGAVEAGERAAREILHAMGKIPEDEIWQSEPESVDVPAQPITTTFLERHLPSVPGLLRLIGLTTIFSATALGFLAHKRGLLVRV
Nature of the assay: Activity evaluation on recombinant human MAO-B (Amplex Red/HRP-coupled assay, 1 mM benzylamine substrate). The following applies: read-out: Inhibitory Activity (IC50, nM) MAO-B. The essentials:
as §1

For assay [3], the target named is T4, recombinant human DAO (diamine oxidase) (Homo sapiens, UniProt P19801).
T4 construct: purchased R&D systems
T4 sequence (P19801 20-751): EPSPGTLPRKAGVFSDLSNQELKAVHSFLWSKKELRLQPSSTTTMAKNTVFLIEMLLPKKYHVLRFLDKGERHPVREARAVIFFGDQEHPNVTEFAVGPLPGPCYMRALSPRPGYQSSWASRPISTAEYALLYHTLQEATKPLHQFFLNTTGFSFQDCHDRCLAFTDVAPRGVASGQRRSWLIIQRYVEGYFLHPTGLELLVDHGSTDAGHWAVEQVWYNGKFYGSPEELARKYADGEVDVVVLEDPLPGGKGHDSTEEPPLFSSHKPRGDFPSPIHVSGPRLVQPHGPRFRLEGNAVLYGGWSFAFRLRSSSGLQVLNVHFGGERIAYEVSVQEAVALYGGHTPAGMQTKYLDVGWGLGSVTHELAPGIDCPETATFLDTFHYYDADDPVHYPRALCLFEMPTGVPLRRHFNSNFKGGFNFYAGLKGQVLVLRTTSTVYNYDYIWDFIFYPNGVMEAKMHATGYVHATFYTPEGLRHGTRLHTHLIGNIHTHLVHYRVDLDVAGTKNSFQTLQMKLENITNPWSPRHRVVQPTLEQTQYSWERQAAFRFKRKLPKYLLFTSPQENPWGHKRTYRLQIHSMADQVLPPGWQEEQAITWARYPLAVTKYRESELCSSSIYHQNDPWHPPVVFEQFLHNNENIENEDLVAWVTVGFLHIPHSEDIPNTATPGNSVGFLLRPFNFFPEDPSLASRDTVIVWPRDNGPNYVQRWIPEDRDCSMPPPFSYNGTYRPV
The assay is described as follows: Activity evaluation on recombinant human DAO (Amplex Red/HRP-coupled assay, 1 mM putrescine substrate). The following applies: read-out: Inhibitory Activity (IC50, nM) DAO. The essentials: as §1

The mark [4] stands for this setting: recombinant human VAP-1, 30 min preincubation at 37° C., 1 mM benzylamine.
The mark [5] stands for this setting: recombinant human VAP-1, benzylamine substrate.

In general, IC50 refers to the concentration that gives 50% inhibition. For `CN(C)c1ccc(-c2cccc(-n3cnn(CC(CN)=C(F)F)c3=O)c2)cn1` [Example 20, 2-[2-(aminomethyl)-3,3-difluoro-allyl]-4-[3-[6-(dimethylamino)-3-pyridyl]phenyl]-1,2,4-triazol-3-one Trifluoroacetate], the IC50 was above 100000 nM in assay [1] (0.5 mM tyramine), 2.1 nM on recombinant human VAP-1 (setting [4]), above 100000 nM in assay [2] (1 mM benzylamine) and 350 nM in assay [3] (1 mM putrescine).

For `Cc1cc(-c2ccc3cc(Cn4cnn(CC(CN)=C(F)F)c4=O)sc3c2)cc2c1NC(=O)CC2` [Example 202, 6-[2-[[1-[2-(aminomethyl)-3,3-difluoro-allyl]-5-oxo-1,2,4-triazol-4-yl]methyl]benzothiophen-6-yl]-8-methyl-3,4-dihydro-1H-quinolin-2-one Trifluoroacetate], the IC50 in assay [1] (0.5 mM tyramine substrate) was above 100000 nM; on recombinant human VAP-1 (setting [5]), 2 nM; in assay [2] (1 mM benzylamine substrate), above 100000 nM; in assay [3] (1 mM putrescine substrate) it was 5600 nM.

With `CCn1cc(-c2ccnc(-n3cnn(CC(CN)=C(F)F)c3=O)c2)cn1` [Example 60, 2-[2-(aminomethyl)-3,3-difluoro-allyl]-4-[4-(1-ethylpyrazol-4-yl)-2-pyridyl]-1,2,4-triazol-3-one Trifluoroacetate], the IC50 was above 100000 nM in assay [1] (0.5 mM tyramine), 1.3 nM on recombinant human VAP-1 (setting [4]), above 100000 nM in assay [2] (1 mM benzylamine) and 810 nM in assay [3] (1 mM putrescine).

Regarding `Cc1cc(-c2ccc(Cn3cnn(CC(CN)=C(F)F)c3=O)s2)cc2ccc(=O)[nH]c12` [Example 135, 6-[5-[[1-[2-(aminomethyl)-3,3-difluoro-allyl]-5-oxo-1,2,4-triazol-4-yl]methyl]-2-thienyl]-8-methyl-1H-quinolin-2-one Trifluoroacetate], the IC50 in assay [1] (0.5 mM tyramine) is above 100000 nM; at recombinant human VAP-1 (setting [4]), 0.4 nM; in assay [2] (1 mM benzylamine), above 100000 nM; in assay [3] (1 mM putrescine), 79000 nM.

With `CCn1cc(-c2ccc(Cn3cnn(CC(CN)=C(F)F)c3=O)s2)cn1` [Example 119, 2-[2-(aminomethyl)-3,3-difluoro-allyl]-4-[[5-(1-ethylpyrazol-4-yl)-2-thienyl]methyl]-1,2,4-triazol-3-one Trifluoroacetate], the IC50 in assay [1] (0.5 mM tyramine) was above 100000 nM; on recombinant human VAP-1 (setting [4]), 0.5 nM; in assay [2] (1 mM benzylamine), 30000 nM; in assay [3] (1 mM putrescine) it was above 10000 nM.

On to `NCC(Cn1ncn(Cc2sc(-c3ccc(N4CCNCC4)cc3)cc2F)c1=O)=C(F)F` [Example 298, 2-[2-(aminomethyl)-3,3-difluoro-allyl]-4-[[3-fluoro-5-(4-piperazin-1-ylphenyl)-2-thienyl]methyl]-1,2,4-triazol-3-one ditrifluoroacetate], for which the IC50 was above 100000 nM in assay [1] (0.5 mM tyramine substrate), 12 nM at recombinant human VAP-1 (setting [5]), above 100000 nM in assay [2] (1 mM benzylamine substrate) and 0.2 nM in assay [3] (1 mM putrescine substrate).

`NCC(Cn1ncn(-c2ncc(-c3ccc(C(F)(F)F)nc3)cc2F)c1=O)=C(F)F` [Example 84, 2-[2-(aminomethyl)-3,3-difluoro-allyl]-4-[3-fluoro-5-[6-(trifluoromethyl)-3-pyridyl]-2-pyridyl]-1,2,4-triazol-3-one Trifluoroacetate]: the IC50 in assay [1] (0.5 mM tyramine) was above 100000 nM; on recombinant human VAP-1 (setting [4]), 0.2 nM; in assay [2] (1 mM benzylamine), 900 nM; in assay [3] (1 mM putrescine), 7 nM.

Turning to `CS(=O)(=O)c1ccc(-c2ccnc(-n3cnn(CC(CN)=C(F)F)c3=O)c2)cc1` [Example 54, 2-[2-(aminomethyl)-3,3-difluoro-allyl]-4-[4-(4-methylsulfonylphenyl)-2-pyridyl]-1,2,4-triazol-3-one Trifluoroacetate], the IC50 was above 100000 nM in assay [1] (0.5 mM tyramine), 4.9 nM on recombinant human VAP-1 (setting [4]), above 100000 nM in assay [2] (1 mM benzylamine) and 480 nM in assay [3] (1 mM putrescine).

For `Cc1cc(-c2ccc(N3CCNCC3)cc2)cnc1-n1cnn(CC(CN)=C(F)F)c1=O` [Example 69, 2-[2-(aminomethyl)-3,3-difluoro-allyl]-4-[3-methyl-5-(4-piperazin-1-ylphenyl)-2-pyridyl]-1,2,4-triazol-3-one Ditrifluoroacetate], the IC50 in assay [1] (0.5 mM tyramine) was above 100000 nM; on recombinant human VAP-1 (setting [4]), 1.2 nM; in assay [2] (1 mM benzylamine) it was above 100000 nM; in assay [3] (1 mM putrescine) it was above 100000 nM.

Regarding `CN(C)c1cc(-c2cccc(-n3cnn(CC(CN)=C(F)F)c3=O)n2)ccc1F` [Example 217, 2-[2-(aminomethyl)-3,3-difluoro-allyl]-4-[6-[3-(dimethylamino)-4-fluoro-phenyl]-2-pyridyl]-1,2,4-triazol-3-one Trifluoroacetate], the IC50 in assay [1] (0.5 mM tyramine substrate) is above 100000 nM; at recombinant human VAP-1 (setting [5]), 1.1 nM; in assay [2] (1 mM benzylamine substrate) it was 13700 nM; in assay [3] (1 mM putrescine substrate) it was 1500 nM.

Turning to `NCC(Cn1ncn(Cc2cc(-c3ccc4c(c3)COC(=O)N4)cs2)c1=O)=C(F)F` [Example 191, 6-[5-[[1-[2-(aminomethyl)-3,3-difluoro-allyl]-5-oxo-1,2,4-triazol-4-yl]methyl]-3-thienyl]-1,4-dihydro-3,1-benzoxazin-2-one Trifluoroacetate], the IC50 in assay [1] (0.5 mM tyramine substrate) was above 100000 nM; at recombinant human VAP-1 (setting [5]), 0.3 nM; in assay [2] (1 mM benzylamine substrate) it was 44000 nM; in assay [3] (1 mM putrescine substrate), 4200 nM.
